Measurements reported in patent US10919935B2, “Antimicrobial peptide derived from myxinidin peptide and uses thereof” (INDUSTRY-ACADEMIC COOPERATION FOUNDATION, CHOSUN UNIVERSITY, priority 2015, dated 2021).
Residues, ends and D or L forms follow the SMILES beside them.

Columns and labels:
[1] = test system: S. aureus 3709; assay: MIC at salt concentration (Example 3); assay type: cell-based, Staphylococcus aureus
Protocol: (§1) To compare the antimicrobial activity of the peptide produced by the method of Example 1, the inventors of the present invention measured the minimum growth inhibitory concentration (MIC), which is minimum concentration of the peptide showing no dissociation of bacterial cells, at salt concentration.
(§2) Specifically, the bacterial strain described in the above Table 2 was cultured in each medium to a mid-log phase. Then, after dilution to bacterial cell concentration of 2×10^5 cells/100 μl, the cells were inoculated to a microtiter plate (NUNC, USA). Thereafter, myxinidin 1, myxinidin 2, or myxinidin 3 peptides which have been synthesized in Example 1 above was diluted, 1/2 times for each, with BSA+150 mM sodium chloride (NaCl) solution, physiological saline (PBS) solution, or 10 mM sodium phosphate (SP) solution in a 96-well plate. After adding the cells to a plate, the cells were cultured for 12 hours at 37° C. By using a microtiter plate reader (Merck Elisa reader, Germany), the absorbance was measured at a wavelength of 600 nm to determine the MIC value of each bacterial strain. As a control group, myxinidin as a mother peptide was subjected to the same processes as above and the MIC value of each bacterial strain was obtained.

[2] = test system: S. aureus 3114; assay: MIC at salt concentration (Example 3); assay type: cell-based, Staphylococcus aureus
Protocol: as §1, §2

[3] = test system: S. aureus; assay: MIC at salt concentration (Example 3); assay type: cell-based, Staphylococcus aureus
Protocol: as §1, §2

[4] = test system: Salmonella typhimurium KCTC 1926; assay type: cell-based
[5] = test system: Pseudomonas aeruginosa Isolated strain 5018; assay type: cell-based
[6] = test system: Staphylococcus aureus ATCC 25923; assay type: cell-based
[7] = test system: Escherichia coli CCARM 1238; assay type: cell-based
[8] = test system: Staphylococcus aureus CCARM 3709; assay type: cell-based
[9] = test system: Pseudomonas aeruginosa Isolated strain 3592; assay type: cell-based
[10] = test system: Salmonella typhimurium CCARM 8009; assay type: cell-based
[11] = test system: Staphylococcus aureus CCARM 3114; assay type: cell-based
[12] = test system: Escherichia coli ATCC 25922; assay type: cell-based
[13] = test system: Pseudomonas aeruginosa ATCC 27853; assay type: cell-based
[14] = test system: Listeria monocytogenes KCTC 3710; assay type: cell-based
[15] = test system: S. typhimurium 8009; assay: MIC at salt concentration (Example 3); assay type: cell-based, Salmonella typhimurium
Protocol: as §1, §2

[16] = test system: S. typhimurium 8013; assay: MIC at salt concentration (Example 3); assay type: cell-based, Salmonella typhimurium
Protocol: as §1, §2

[17] = test system: S. typhimurium; assay: MIC at salt concentration (Example 3); assay type: cell-based, Salmonella typhimurium
Protocol: as §1, §2

[18] = test system: P. aeruginosa; assay: Anti-biofilm activity (crystal violet); assay type: cell-based, Pseudomonas aeruginosa
Protocol: To compare the antimicrobial activity of the peptide produced by the method of Example 1, the inventors of the present invention measured the biofilm inhibitory concentration value of the peptide showing no dissociation of bacterial cells.
Specifically, the Gram-negative bacteria and Gram-positive bacteria among the bacterial strains described in the above Table 2 were cultured in each medium to a mid-log phase. Then, after dilution to bacterial cell concentration of 5×10^5 cells/100 μl, the cells were inoculated to a microtiter plate (NUNC, USA). Thereafter, myxinidin 1, myxinidin 2, or myxinidin 3 peptides which have been synthesized in Example 1 above was diluted, 1/10 times for each, with physiological saline (PBS) solution in a 96-well plate. After adding the cells to a plate, the cells were cultured for 12 hours at 37° C. After removing the supernatant, the cells were fixed with 100% methanol and reacted for 2 hours with Crystal violet staining solution followed by rinsing for 3 times. Then, after dissolving in 95% ethanol, the absorbance was measured at a wavelength of 595 nm by using a microtiter plate reader (Merck Elisa reader, Germany) to determine the biofilm inhibitory concentration value of each bacterial strain. As a control group, myxinidin as a mother peptide was subjected to the same processes as above and the biofilm inhibitory concentration value of each bacterial strain was obtained.

[19] = NaCl (BSA+150 mM sodium chloride)

CC[C@H](C)[C@H](NC(=O)[C@H](Cc1c[nH]c2ccccc12)NC(=O)[C@H](CCCNC(=N)N)NC(=O)[C@@H](NC(=O)[C@@H](N)CCCNC(=N)N)[C@@H](C)CC)C(=O)N[C@@H](CC(C)C)C(=O)N[C@@H](CCCNC(=N)N)C(=O)N[C@@H](Cc1ccc(O)cc1)C(=O)N[C@@H](Cc1c[nH]c2ccccc12)C(=O)N[C@@H](CCCNC(=N)N)C(=O)N[C@@H](Cc1c[nH]c2ccccc12)C(=O)N[C@@H](CO)C(N)=O [Myxinidin 3, RIRWILRYWRWS-NH2] (H-RIRWILRYWRWS-NH2; N-terminus assumed)
Antimicrobial activity (MIC) according to salt concentration [1, 19]: 4 | Antimicrobial activity (MIC) according to salt concentration ([1]; PBS): 4 | Antimicrobial activity (MIC) according to salt concentration ([1]; SP (10 mM sodium phosphate)): 4 | Antimicrobial activity (MIC) according to salt concentration [2, 19]: 16 | Antimicrobial activity (MIC) according to salt concentration ([2]; PBS): 4 | Antimicrobial activity (MIC) according to salt concentration ([2]; SP (10 mM sodium phosphate)): 4 | Antimicrobial activity (MIC) according to salt concentration [3, 19]: 0.25 | Antimicrobial activity (MIC) according to salt concentration ([3]; PBS): 1 | Antimicrobial activity (MIC) according to salt concentration ([3]; SP (10 mM sodium phosphate)): 1 | Minimum growth inhibitory concentration [4]: 1 µM | Minimum growth inhibitory concentration [5]: 8 µM | Minimum growth inhibitory concentration [6]: 0.25 µM | Minimum growth inhibitory concentration [7]: 2 µM | Minimum growth inhibitory concentration [8]: 2 µM | Minimum growth inhibitory concentration [9]: 8 µM | Minimum growth inhibitory concentration [10]: 4 µM | Minimum growth inhibitory concentration [11]: 8 µM | Minimum growth inhibitory concentration [12]: 0.5 µM | Minimum growth inhibitory concentration [13]: 2 µM | Minimum growth inhibitory concentration [14]: 1 µM | Antimicrobial activity (MIC) according to salt concentration [15, 19]: 4 | Antimicrobial activity (MIC) according to salt concentration ([15]; PBS): 4 | Antimicrobial activity (MIC) according to salt concentration ([15]; SP (10 mM sodium phosphate)): 2 | Antimicrobial activity (MIC) according to salt concentration [16, 19]: 8 | Antimicrobial activity (MIC) according to salt concentration ([16]; PBS): 4 | Antimicrobial activity (MIC) according to salt concentration ([16]; SP (10 mM sodium phosphate)): 2 | Antimicrobial activity (MIC) according to salt concentration [17, 19]: 2 | Antimicrobial activity (MIC) according to salt concentration ([17]; PBS): 2 | Antimicrobial activity (MIC) according to salt concentration ([17]; SP (10 mM sodium phosphate)): 2 | Biofilm forming ability ([18]; peptide 0.25 μM): 100% | Biofilm forming ability ([18]; peptide 0.5 μM): 97% | Biofilm forming ability ([18]; peptide 1 μM): 97% | Biofilm forming ability ([18]; peptide 2 μM): 64% | Biofilm forming ability ([18]; peptide 4 μM): 8% | Biofilm forming ability ([18]; peptide 8 μM): 7% | Biofilm forming ability ([18]; peptide 16 μM): 7% | Biofilm forming ability ([18]; peptide 32 μM): 7%
